Experimental data as given in PMC4865845, “A human genome-wide loss-of-function screen identifies effective chikungunya antiviral drugs” (Nature Communications, 2016).
Read-outs that look alike come from different tables or passages of the source.

What was measured:
CHIKV = assay: microbe, parasite or virus in culture; type: cell-based, chikungunya virus; conditions: HEK-293 cells pretreated with dilutions of each drug, CHIKV-GFP, 18 h p.i.
HEK-293 cells = assay: Cell viability, Cell Proliferation Reagent WST-1; type: cell-based, human; conditions: read-out: WST-1 IC50
Description: To exclude the possible cytotoxic effects, all compounds were additionally tested using the ‘Cell Proliferation Reagent WST-1' (Roche Diagnostics). HEK-293 cells were treated with the same concentrations of the various substances and 18 h later WST-1 was added. Readout was conducted using the EnVision Multilabel Reader (PerkinElmer).

CLK1 = CLK1 (Homo sapiens, UniProt P49759); assay: CLK1 inhibition by capillary electrophoresis in a microfluidic chip system (LabChip3000); type: biochemical
HeLa cells [1] = assay: Real-time cell toxicity assay (xCELLigence)
CHIKV replicon = CHIKV replicon dual-luciferase assay (genomic and subgenomic vRNA expression); type: cell-based, chikungunya virus; conditions: HeLa cells, inhibitor from 1 h p.i., read 8 h p.i.
CHIKV C21 [2] = assay: Single-cycle CHIKV C21 infection, drug 2 h before or 2 h after infection (flow cytometry of capsid; supernatant infectivity on Vero cells); type: cell-based, chikungunya virus
HeLa cells [3] = assay: Cell viability, CellTiter-Glo kit; conditions: end of the 1 h infection + 7 h treatment experiment
CHIKV C21 [4] = assay: Quantitative RT-PCR of cell- and supernatant-associated vRNA; type: cell-based, chikungunya virus; conditions: HeLa; for vRNA synthesis (cell-associated vRNA) / viral release in the supernatants (supernatant-associated vRNA): CHIKV C21 MOI 50 for 1 h, then drug 7 h: cerulenin 50 μM, TOFA 25 μM, pimozide 10 μM, W7 20 μM, tivozanib 5 μM; for vRNA replication, delayed treatment / viral release, delayed treatment: CHIKV-infected, drugs from 6 to 8 h p.i.
CHIKV C21 [5] = assay: Intradermal CHIKV infection model of neonatal mice
[6] = HEK-293 cell viability, 18 h, * = treatment induced <50% cell death
[7] = 0.5 mg kg−1 per os daily from day 7, infected at day 9, continued 21 days

Chain of CLK1 (P49759 whole entry): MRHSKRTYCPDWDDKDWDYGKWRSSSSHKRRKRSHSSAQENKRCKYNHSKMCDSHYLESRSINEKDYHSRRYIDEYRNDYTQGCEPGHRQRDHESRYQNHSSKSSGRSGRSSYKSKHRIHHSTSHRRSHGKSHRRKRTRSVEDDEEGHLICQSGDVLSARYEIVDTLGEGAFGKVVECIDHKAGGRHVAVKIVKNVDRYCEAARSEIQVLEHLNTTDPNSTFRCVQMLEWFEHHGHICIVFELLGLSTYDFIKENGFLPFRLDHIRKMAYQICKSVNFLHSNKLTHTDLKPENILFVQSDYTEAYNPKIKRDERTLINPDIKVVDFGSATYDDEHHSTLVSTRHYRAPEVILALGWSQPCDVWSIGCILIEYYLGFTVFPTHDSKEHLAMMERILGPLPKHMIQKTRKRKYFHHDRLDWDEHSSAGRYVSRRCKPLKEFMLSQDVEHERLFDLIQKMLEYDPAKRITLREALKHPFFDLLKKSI

C=CC/C=C\C/C=C\CCCCCCCc1cccc(O)c1C(=O)O [(15:3)-Anacardic acid]
IC50 (CHIKV): 580 nM | IC50 (HEK-293 cells; [6]): 2680 nM

O=C1Cc2c([nH]c3ccc([N+](=O)[O-])cc23)-c2ccccc2N1 [Alsterpaullone]
IC50 (CHIKV; Chikungunya virus, HEK293): 2 nM | IC50 (HEK-293 cells; Homo sapiens, HEK293, 18 h): 44400 nM

CCCCn1c2cc(OC)c(Cl)cc2c2ccnc(C)c21 [AnnH14, 9-butyl-6-chloro-7-methoxy-1-methyl-9H-pyrido[3,4-b]indole]
IC50 (CHIKV; Chikungunya virus, HEK293): 1550 nM | IC50 (HEK-293 cells; Homo sapiens, HEK293, 18 h): 10600 nM | IC50 (CLK1): 5020 nM

COc1ccc2c(c1)[nH]c1c(/C=C/c3ccccc3)nccc12 [AnnH18, (E)-7-methoxy-1-(2-phenylethen-1-yl)-9H-pyrido[3,4-b]indole]
IC50 (CHIKV; Chikungunya virus, HEK293): 1020 nM | IC50 (HEK-293 cells; Homo sapiens, HEK293, 18 h): 9190 nM | IC50 (CLK1): 575 nM

COc1ccc(-c2ccccc2)cc1NS(=O)(=O)c1cc(Cl)cc(Cl)c1O [BMS-303141]
effect on cell viability (HeLa cells [1]): no deleterious effect on cell viability | genomic and subgenomic vRNA synthesis (CHIKV replicon): significant and dose-dependent reduction

CO/C1=C\C(C)=C\[C@@H](C)[C@@H](O)[C@@H](C)C/C(C)=C/C=C/[C@H](OC)[C@@H]([C@@H](C)[C@@H](O)[C@H](C)[C@@]2(O)C[C@@H](O)[C@H](C)[C@@H](C(C)C)O2)OC1=O [Bafilomycin]
IC50 (CHIKV): 0.334 nM | IC50 (HEK-293 cells; [6]): 3 nM | stage of the viral life cycle affected (CHIKV C21 [2]; single-cycle CHIKV infection, treatment before or after viral entry): specifically blocked CHIKV entry

C/C=C/C/C=C/CCC(=O)[C@H]1O[C@H]1C(N)=O [Cerulenin]
IC50 (CHIKV; Chikungunya virus, HEK293): 3000 nM | effect on cell viability (HeLa cells [1]): no deleterious effect on cell viability | IC50 (HEK-293 cells; Homo sapiens, HEK293, 18 h): 7570 nM | genomic and subgenomic vRNA synthesis (CHIKV replicon): significant and dose-dependent reduction | cell toxicity (HeLa cells [3]): no detectable cell toxicity | vRNA synthesis (cell-associated vRNA) (CHIKV C21 [4]): significantly reduced vRNA synthesis | viral release in the supernatants (supernatant-associated vRNA) (CHIKV C21 [4]): strongly inhibited viral release | vRNA replication, delayed treatment (CHIKV C21 [4]): only a minor impact on vRNA replication | viral release, delayed treatment (CHIKV C21 [4]): major defect in viral release

CCOC(=O)C1=C(C)NC(C)=C(C(=O)OC)C1c1cccc(Cl)c1Cl (stereo not drawn) [Felodipine]
IC50 (CHIKV; Chikungunya virus, HEK293): 3240 nM | IC50 (HEK-293 cells; Homo sapiens, HEK293, 18 h): 12100 nM

Cc1ccc(F)c(NC(=O)Nc2ccc(-c3cccc4[nH]nc(N)c34)cc2)c1 [Linifanib]
IC50 (CHIKV; Chikungunya virus, HEK293): 2150 nM | IC50 (HEK-293 cells; Homo sapiens, HEK293, 18 h): > 60000 nM

CCCCCCCCCCC[C@@H](C[C@@H]1OC(=O)[C@H]1CCCCCC)OC(=O)[C@H](CC(C)C)NC=O [Orlistat]
IC50 (CHIKV; Chikungunya virus, HEK293): 820 nM | IC50 (HEK-293 cells; Homo sapiens, HEK293, 18 h): 8670 nM

Cc1ccc(Nc2nccc(N(C)c3ccc4c(C)n(C)nc4c3)n2)cc1S(N)(=O)=O [Pazopanib]
IC50 (CHIKV; Chikungunya virus, HEK293): 130 nM | IC50 (HEK-293 cells; Homo sapiens, HEK293, 18 h): 1320 nM

OCCN1CCN(CCCN2c3ccccc3Sc3ccc(Cl)cc32)CC1 [Perphenazine]
IC50 (CHIKV; Chikungunya virus, HEK293): 630 nM | IC50 (HEK-293 cells; Homo sapiens, HEK293, 18 h): 24200 nM

CC(Cc1ccccc1)NCCC(c1ccccc1)c1ccccc1 (stereo not drawn) [Prenylamine]
IC50 (CHIKV; Chikungunya virus, HEK293): 2390 nM | IC50 (HEK-293 cells; Homo sapiens, HEK293, 18 h): 16500 nM

CNC(=O)c1cc(Oc2ccc(NC(=O)Nc3ccc(Cl)c(C(F)(F)F)c3)cc2)ccn1 [Sorafenib]
IC50 (CHIKV; Chikungunya virus, HEK293): 1110 nM | IC50 (HEK-293 cells; Homo sapiens, HEK293, 18 h): 18200 nM

COc1cc(N2CCC(N3CCN(C)CC3)CC2)ccc1Nc1ncc(Cl)c(Nc2ccccc2S(=O)(=O)C(C)C)n1 [TAE684]
IC50 (CHIKV; Chikungunya virus, HEK293): 150 nM | IC50 (HEK-293 cells; Homo sapiens, HEK293, 18 h): 2070 nM

COc1cc2nccc(Oc3ccc(NC(=O)Nc4cc(C)on4)c(Cl)c3)c2cc1OC [Tivozanib]
IC50 (CHIKV; Chikungunya virus, HEK293): 800 nM | IC50 (HEK-293 cells; Homo sapiens, HEK293, 18 h): 8340 nM | body weight gain (CHIKV C21 [5]; [7]): positive impact on body weight gain | mortality of CHIKV-infected mice (CHIKV C21 [5]; [7]): significant reduction in mortality | onset of paralysis (CHIKV C21 [5]; [7]): protected from the onset of paralysis | CHIKV viral load in organs (CHIKV C21 [5]; 3 days post infection, 0.5 mg kg−1 per os): significantly reduced CHIKV viral load | cell toxicity (HeLa cells [3]): no detectable cell toxicity | vRNA synthesis (cell-associated vRNA) (CHIKV C21 [4]): significantly reduced vRNA synthesis | viral release in the supernatants (supernatant-associated vRNA) (CHIKV C21 [4]): strongly inhibited viral release | vRNA replication, delayed treatment (CHIKV C21 [4]): only a minor impact on vRNA replication | viral release, delayed treatment (CHIKV C21 [4]): major defect in viral release

KH-CB19
IC50 (CHIKV): 3360 nM | IC50 (HEK-293 cells; [6]): 10900 nM | inhibition of CHIKV infection at early times p.i. (CHIKV C21 [2]; Supplementary Fig. 5a): incomplete inhibition
